According to US11701364B2, “Agonists of stimulator of interferon genes sting” (The Scripps Research Institute, priority 2018, dated 2023):
Read-outs that look alike come from different tables or passages of the source.

Assays:
[1] = target: T1, STING (Stimulator of Interferon Genes) (Homo sapiens, UniProt Q86WV6, G230A/H232R/R293Q/R71H); experiment: ISG-LUC activation assay (ISRE-Luciferase assay in THP-1 Lucia ISG reporter cells); format: cell-based
T1 construct: host or cells: THP-1-Lucia ISG cells (human monocytic line)
Excerpt: (§1) This has been established using a primary assay involving a human THP-1 cell line carrying an IRF-inducible reporter with 5 copies of the IFN signaling response element. Counter screens, involving alternative reporter constructs, rodent cell-based assays, as well as cGAS and STING knock-out cell lines, are used to eliminate luciferase artifacts and ensure human-rodent cross species reactivity, as well as pathway selectivity. Biochemical assays, involving cGAS enzymatic activity and STING protein binding assays, are used to identify the specific target of identified hits.
(§2) THP-1 Lucia ISG cells were resuspended in low-serum growth media (2% FBS) at a density of 5×10^5 cells/ml and treated with test article or vehicle (DMSO). 50 μL of cells were seeded into each well of a 384-well white greiner plates and incubated for 24 hours. To evaluate expression of the luciferase reporter, 30 μl of Quanti-luc (Invivogen) detection reagent was added to each well and luminescence was read using an Envision plate reader (Perkin Elmer) set with an integration time of 0.1 seconds.

STING knockout cells = experiment: ISRE-Luciferase reporter activity in STING knockout THP-1 cells (counter screen); format: cell-based, human
Protocol: Wild-type and STING KO THP-1 ISRE-Luciferase reporter cells were treated with increasing doses of 2′3′-cGAMP and reporter activity (luminescence) was assessed 48 h after treatment (A). Lack of STING protein expression was confirmed in STING KO THP-1 cells by western blot with gamma-tubulin used as a protein loading control (B). Wild-type and STING KO THP-1 reporter cells were treated with increasing doses of Compound 164 (Cmpd 164) and reporter activity and cell viability were assessed 24 h after treatment (C-D).
We have established a robust platform for identifying non-nucleotide small molecule STING agonists. This has been established using a primary assay involving a human THP-1 cell line carrying an IRF-inducible reporter with 5 copies of the IFN signaling response element. […]
as §2, with “50 μL of cells were seeded into each well of a 384-well white greiner plates and incubated for 24 hours.” left out

cGAS knockout cells = experiment: Activity in wild-type and cGAS knockout cells (counter screen); format: cell-based
Excerpt: We have established a robust platform for identifying non-nucleotide small molecule STING agonists. This has been established using a primary assay involving a human THP-1 cell line carrying an IRF-inducible reporter with 5 copies of the IFN signaling response element. Counter screens, involving alternative reporter constructs, rodent cell-based assays, as well as cGAS and STING knock-out cell lines, are used to eliminate luciferase artifacts and ensure human-rodent cross species reactivity, as well as pathway selectivity. Biochemical assays, involving cGAS enzymatic activity and STING protein binding assays, are used to identify the specific target of identified hits. […] Further evidence is provided by STING protein thermal shift data. A preliminary medicinal chemistry effort, involving the design, synthesis, and testing of ˜100 analogs within the series, has identified key features of the molecule that are required for activity and has led to the identification of derivatives with ˜10-fold improvements in cell-based potency (by for example modulating the substitution pattern on the aniline ring) and ˜50-fold improvement in plasma stability (by modulating the size of the substituent of the ester).

human PBMCs = experiment: Type I IFN protein expression in human PBMCs; format: cell-based; conditions: compared with 2′-3′ cGAMP
[2] = tested on: interferon-stimulated gene signature; experiment: Interferon-stimulated gene signature expression (qPCR); format: cell-based, human; conditions: relevant cell types
Protocol: Wild-type and STING KO THP-1 cells were stimulated with poly(dA:dT), a known activator of both RIG-I and cGAS-dependent signaling cascades, and downstream target gene expression was assessed 48 h later by qPCR (A). Wild-type and STING KO THP-1 cells were stimulated with 2′3′-cGAMP or Cmpd 164 at the indicated doses and activation of type I interferon signaling was assessed by gene expression analysis of IFNB1 (B) and interferon stimulated genes, IFIT3 (C) and CXCL10 (D).
as §1, with “We have established a robust platform for identifying non-nucleotide small molecule STING agonists. This” for “This”, “Biochemical assays, involving cGAS enzymatic activity and STING protein binding assays, are used to identify the specific target of identified hits.” left out
THP-1 cells were resuspended in low-serum growth media at a density of 5×10^5 cells/ml and treated with test article or vehicle (DMSO). […] Gene expression was assessed using Taqman primers and probes listed in Table 4 with the Taqman Universal Mix II (cat. no. 4440038, ThermoFisher) following manufacturer's instructions. […]

[3] = THP-1 Lucia ISG cells, 24 hours, luciferase reporter, read-out: ISG-LUC activation assay (EC50)

T1 sequence (Q86WV6 whole entry R71H/G230A/H232R/R293Q): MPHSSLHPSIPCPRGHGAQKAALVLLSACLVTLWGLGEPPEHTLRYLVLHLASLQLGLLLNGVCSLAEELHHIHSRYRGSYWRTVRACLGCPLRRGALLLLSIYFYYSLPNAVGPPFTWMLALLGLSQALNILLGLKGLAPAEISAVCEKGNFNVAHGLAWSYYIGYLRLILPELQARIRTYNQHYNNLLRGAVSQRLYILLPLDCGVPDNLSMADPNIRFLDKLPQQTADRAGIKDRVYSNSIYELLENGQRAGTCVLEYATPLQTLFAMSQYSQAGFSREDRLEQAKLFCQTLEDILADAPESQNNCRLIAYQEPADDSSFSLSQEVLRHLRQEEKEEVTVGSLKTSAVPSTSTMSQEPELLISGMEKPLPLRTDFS

SMILES | EC50 [1, 3] [µM] | other results
O=C(Nc1ccc(Br)cc1C(O)(C(F)(F)F)C(F)(F)F)c1ccc(-n2ccnc2)nn1 [Compound 164] | > 20 | EC50 ([1]; primary assay, human THP-1 IRF-inducible reporter, read-out: EC50): ~1 µM; activity in STING knockout cells (STING knockout cells): lack of activity; activity in wild-type and cGAS knockout cells (cGAS knockout cells): observed activity; type I IFN protein expression, efficacy (human PBMCs): comparable to that observed for 2′-3′ cGAMP; interferon-stimulated gene signature expression [2]: induces interferon-stimulated gene signature expression
COC(=O)c1cccc(F)c1NC(=O)c1ccc(-n2ccnc2)nn1 [Compound 156] | > 50 | –
Cc1ccc(NC(=O)c2ccc(-n3ccnc3)nn2)c(C(O)(C(F)(F)F)C(F)(F)F)c1 [Compound 115] | 7.36 | –
COC(=O)c1cc(F)c(OC)cc1NC(=O)c1ccc(-n2ccnc2)nn1 [Compound 52] | 0.0744 | –
Cc1ccc2nc(-c3ccc(-n4ccnc4)nn3)oc(=O)c2n1 [Compound 137] | 9.33 | –
Cc1cc2nc(-c3ccc(-n4ccnc4)nn3)oc(=O)c2cc1F [Compound 39] | 0.0308 | –
CCc1ccc(NC(=O)c2ccc(-n3ccnc3)nn2)c(C(=O)O)c1 [Compound 79] | > 20 | –
CCc1ccc(NC(=O)c2ccc(-n3ccnc3)nn2)c(C(=O)OC)c1 [Compound 20] | 0.418 | –
COC(=O)c1n[nH]cc1NC(=O)c1ccc(-n2ccnc2)nn1 [Compound 123] | 2.99 | –
COCC(=O)c1nc(Cl)ncc1NC(=O)c1ccc(-n2ccnc2)nn1 [Compound 75] | 1.26 | –
COC(=O)c1ccc(C)cc1NC(=O)c1ccc(-n2ccnc2)nn1 [Compound 15] | 0.294 | –
O=C(Nc1cc(C2CC2)c(F)cc1C(=O)O)c1ccc(-n2ccnc2)nn1 [Compound 174] | 10 | –
CCc1ccc(NC(=O)c2ccc(-n3ccnc3)nn2)c(C(=O)OC(C)C)c1 [Compound 65] | 1.16 | –
CC(C)OC(=O)c1ccccc1NC(=O)c1ccc(-n2ccnc2)nn1 [Compound 95] | 1.7 | –
CC(C)OC(=O)c1cc(F)c(F)cc1NC(=O)c1ccc(-n2ccnc2)nn1 [Compound 24] | 0.736 | –
O=C(Nc1ccccc1-c1noc(O)n1)c1ccc(-n2ccnc2)nn1 [Compound 118] | 3.97 | –
O=C(Nc1cc2ccccc2nc1C(=O)O)c1ccc(-n2ccnc2)nn1 [Compound 154] | ~10.4 | –
CCN(CC)CC(C)(C)NC(=O)c1cc(F)c(F)cc1NC(=O)c1ccc(-n2ccnc2)nn1 [Compound 163] | 16.6 | –
Cc1cc2c(=O)oc(-c3ccc(-n4ccnc4)nn3)nc2cc1F [Compound 33] | < 0.0195 | –
CCOC(=O)c1cc2c(nc1NC(=O)c1ccc(-n3ccnc3)nn1)CCN(C)C2 [Compound 116] | 3.46 | –

SMILES | EC50 [1, 3] [µM] | other results
COC(=O)c1ccc(OC)cc1NC(=O)c1ccc(-n2ccnc2)nn1 [Compound 105] | 0.192 | –
COC(=O)c1ncc(F)cc1NC(=O)c1ccc(-n2ccnc2)nn1 [Compound 69] | 2.79 | –
COC(=O)c1cc(F)c(Br)cc1NC(=O)c1ccc(-n2ccnc2)nn1 [Compound 58] | 0.0606 | –
COC(=O)c1cc(OC)c(Cl)cc1NC(=O)c1ccc(-n2ccnc2)nn1 [Compound 57] | < 0.0195 | –
COc1ccc2c(=O)oc(-c3ccc(-n4ccnc4)nn3)nc2c1 [Compound 38] | 0.485 | –
COC(=O)C1=C(NC(=O)c2ccc(-n3ccnc3)nn2)CC(C)(C)CC1 [Compound 127] | 7.3 | –
O=c1oc(-c2ccc(-n3ccnc3)nn2)nc2cc(F)c(OC(F)(F)F)cc12 [Compound 42] | 0.373 | –
COC(=O)c1c(F)ccc(Cl)c1NC(=O)c1ccc(-n2ccnc2)nn1 [Compound 99] | 11.9 | –
COC(=O)c1cc(C(C)C)ccc1NC(=O)c1ccc(-n2ccnc2)nn1 [Compound 160] | 3.84 | –
O=C(Nc1cc(F)c(C(F)(F)F)cc1C(=O)O)c1ccc(-n2ccnc2)nn1 [Compound 80] | 3.97 | –
COC(=O)c1cccc(C)c1NC(=O)c1ccc(-n2ccnc2)nn1 [Compound 91] | ~5.07 | –
COC(=O)c1cc(OC(F)(F)F)ccc1NC(=O)c1ccc(-n2ccnc2)nn1 [Compound 76] | 0.573 | –
COC(=O)c1ccc(C(=O)OC)c(NC(=O)c2ccc(-n3ccnc3)nn2)c1 [Compound 159] | > 20 | –
N#Cc1ccc2c(=O)oc(-c3ccc(-n4ccnc4)nn3)nc2c1 [Compound 37] | 0.166 | –
Nc1cc(F)c(F)cc1NC(=O)c1ccc(-n2ccnc2)nn1 [Compound 144] | > 50 | –
CCOC(=O)c1c(F)cc(F)c(F)c1NC(=O)c1ccc(-n2ccnc2)nn1 [Compound 148] | 3.68 | –
COC(=O)c1cc(OC)ccc1NC(=O)c1ccc(-n2ccnc2)nn1 [Compound 14] | 0.288 | –
COC(=O)c1cc(Cl)cc(C)c1NC(=O)c1ccc(-n2ccnc2)nn1 [Compound 97] | ~2.49 | –
O=C(Nc1cc(Cl)c(F)cc1C(=O)O)c1ccc(-n2ccnc2)nn1 [Compound 53] | ~0.625 | –
COC(=O)c1cc(C#N)cc(F)c1NC(=O)c1ccc(-n2ccnc2)nn1 [Compound 73] | 2.37 | –

SMILES | EC50 [1, 3] [µM] | other results
COC(=O)c1ccc(C)c(C)c1NC(=O)c1ccc(-n2ccnc2)nn1 [Compound 6] | ~2.76 | –
O=C(Nc1cc(F)c(Br)nc1C(=O)O)c1ccc(-n2ccnc2)nn1 [Compound 177] | > 20 | –
COC(=O)c1cc(C(F)(F)F)cc(F)c1NC(=O)c1ccc(-n2ccnc2)nn1 [Compound 48] | 0.475 | –
CCOC(=O)C1=C(NC(=O)c2ccc(-n3ccnc3)nn2)CCC1 [Compound 113] | 18.7 | –
Cc1cc(NC(=O)c2ccc(-n3ccnc3)nn2)c(C(=O)O)cc1C [Compound 111] | 7.25 | –
COC(=O)c1cc(O)c(F)cc1NC(=O)c1ccc(-n2ccnc2)nn1 [Compound 142] | > 50 | –
COC(=O)c1cc(C#N)c(F)cc1NC(=O)c1ccc(-n2ccnc2)nn1 [Compound 55] | 0.221 | –
O=C(Nc1ccc(Cl)cc1C(=O)O)c1ccc(-n2ccnc2)nn1 [Compound 83] | > 20 | –
COC(=O)c1cc(C(F)(F)F)c(F)cc1NC(=O)c1ccc(-n2ccnc2)nn1 [Compound 70] | 1.72 | –
N#Cc1ccc(C(=O)O)c(NC(=O)c2ccc(-n3ccnc3)nn2)c1 [Compound 165] | 4.09 | –
Cc1cc(NC(=O)c2ccc(-n3ccnc3)nn2)c(C(N)=O)cc1C [Compound 125] | 9.62 | –
O=C(Nc1ccc(C2CC2)cc1C(=O)O)c1ccc(-n2ccnc2)nn1 [Compound 85] | ~16.6 | –
COC(=O)c1ccccc1NC(=O)c1ccc(-n2cnc(C#N)c2)nn1 [Compound 92] | ~5.26 | –
COC(=O)c1ccc(C2CC2)cc1NC(=O)c1ccc(-n2ccnc2)nn1 [Compound 31] | 0.206 | –
COC(=O)c1ncccc1NC(=O)c1ccc(-n2ccnc2)nn1 [Compound 5] | 1.24 | –
O=c1oc(-c2ccc(-n3ccnc3)nn2)nc2cc3c(cc12)OCCO3 [Compound 139] | 2.52 | –
O=C(Nc1ccc(F)c(F)c1C(=O)O)c1ccc(-n2ccnc2)nn1 [Compound 173] | > 20 | –
CC(C)OC(=O)c1cc(F)ccc1NC(=O)c1ccc(-n2ccnc2)nn1 [Compound 25] | 0.805 | –
